The CheMixHub viscosity set
± gives the uncertainty stated by the source.

Experiment: xn = mol fraction of the nth substance listed

C1CCOC1 + C1CCCCC1
Conditions | viscosity [mPa·s]
298.15 K, 101.3 kPa, x2 = 0.1002 | 0.4906 ± 0.0047
298.15 K, 101.3 kPa, x2 = 0.1973 | 0.5151 ± 0.0048
298.15 K, 101.3 kPa, x2 = 0.2946 | 0.5406 ± 0.005
298.15 K, 101.3 kPa, x2 = 0.3963 | 0.5689 ± 0.0052
298.15 K, 101.3 kPa, x2 = 0.5012 | 0.6048 ± 0.0055
298.15 K, 101.3 kPa, x2 = 0.5961 | 0.6424 ± 0.0057
298.15 K, 101.3 kPa, x2 = 0.7009 | 0.6906 ± 0.0061
298.15 K, 101.3 kPa, x2 = 0.906 | 0.8152 ± 0.0071
303.15 K, 101.33 kPa, x1 = 0.0954 | 0.751 ± 0.007
303.15 K, 101.33 kPa, x1 = 0.1961 | 0.691 ± 0.006
303.15 K, 101.33 kPa, x1 = 0.3067 | 0.639 ± 0.006
303.15 K, 101.33 kPa, x1 = 0.4023 | 0.6 ± 0.005
303.15 K, 101.33 kPa, x1 = 0.5059 | 0.562 ± 0.005
303.15 K, 101.33 kPa, x1 = 0.6054 | 0.533 ± 0.005
303.15 K, 101.33 kPa, x1 = 0.704 | 0.505 ± 0.005
303.15 K, 101.33 kPa, x1 = 0.8065 | 0.478 ± 0.004
303.15 K, 101.33 kPa, x1 = 0.8987 | 0.457 ± 0.004
313.15 K, 101.3 kPa, x2 = 0.1002 | 0.4186 ± 0.0042
313.15 K, 101.3 kPa, x2 = 0.1973 | 0.4356 ± 0.0043
313.15 K, 101.3 kPa, x2 = 0.2946 | 0.4542 ± 0.0044
313.15 K, 101.3 kPa, x2 = 0.3963 | 0.4773 ± 0.0046
313.15 K, 101.3 kPa, x2 = 0.5012 | 0.5037 ± 0.0048
313.15 K, 101.3 kPa, x2 = 0.5961 | 0.5305 ± 0.005
313.15 K, 101.3 kPa, x2 = 0.7009 | 0.5648 ± 0.0052
313.15 K, 101.3 kPa, x2 = 0.906 | 0.6505 ± 0.006

CC(C)=O + C1CCCCC1
viscosity [mPa·s], 101.33 kPa
Conditions | 293.15 K | 298.15 K | 303.15 K | 307.35 K
x1 = 0.091 | – | – | – | 0.662 ± 0.011
x1 = 0.3116 | – | – | – | 0.512 ± 0.0093
x1 = 0.3949 | – | – | – | 0.461 ± 0.0089
x1 = 0.4589 | – | – | – | 0.431 ± 0.0087
x1 = 0.5299 | – | – | – | 0.402 ± 0.0084
x1 = 0.7897 | – | – | – | 0.323 ± 0.0078
x2 = 0.049 | 0.329 ± 0.007 | 0.313 ± 0.006 | 0.299 ± 0.006 | –
x2 = 0.0917 | 0.336 ± 0.007 | 0.32 ± 0.007 | 0.305 ± 0.006 | –
x2 = 0.1959 | 0.361 ± 0.007 | 0.343 ± 0.007 | 0.326 ± 0.007 | –
x2 = 0.2889 | 0.392 ± 0.008 | 0.371 ± 0.007 | 0.352 ± 0.007 | –
x2 = 0.4092 | 0.443 ± 0.008 | 0.417 ± 0.008 | 0.394 ± 0.008 | –
x2 = 0.5009 | 0.486 ± 0.009 | 0.456 ± 0.008 | 0.429 ± 0.008 | –
x2 = 0.5984 | 0.544 ± 0.01 | 0.509 ± 0.009 | 0.477 ± 0.009 | –
x2 = 0.7007 | 0.621 ± 0.011 | 0.578 ± 0.01 | 0.54 ± 0.01 | –
x2 = 0.8046 | 0.7 ± 0.012 | 0.65 ± 0.011 | 0.606 ± 0.01 | –
x2 = 0.9051 | 0.818 ± 0.013 | 0.756 ± 0.013 | 0.701 ± 0.012 | –
x2 = 0.958 | 0.895 ± 0.015 | 0.829 ± 0.014 | 0.762 ± 0.013 | –

CCCc1ccccc1 + C1CCCCC1
303.15 K, 101 kPa
Conditions | viscosity [mPa·s]
x2 = 0.1018 | 0.7449 ± 0.0048
x2 = 0.2046 | 0.7318 ± 0.0048
x2 = 0.3024 | 0.7218 ± 0.0047
x2 = 0.3975 | 0.7149 ± 0.0047
x2 = 0.5018 | 0.7144 ± 0.0047
x2 = 0.6007 | 0.716 ± 0.0047
x2 = 0.6984 | 0.7272 ± 0.0048
x2 = 0.7974 | 0.749 ± 0.0049
x2 = 0.9039 | 0.7828 ± 0.005

COc1ccccc1 + C1CCCCC1
viscosity [mPa·s]
Conditions | 298.15 K | 303.15 K | 308.15 K | 313.15 K
101 kPa, x1 = 0.1016 | 0.8187 ± 0.021 | 0.7586 ± 0.02 | 0.7009 ± 0.018 | 0.6496 ± 0.017
101 kPa, x1 = 0.1993 | 0.7856 ± 0.02 | 0.7308 ± 0.019 | 0.68 ± 0.018 | 0.6314 ± 0.016
101 kPa, x1 = 0.3005 | 0.77 ± 0.02 | 0.7174 ± 0.019 | 0.668 ± 0.017 | 0.6223 ± 0.016
101 kPa, x1 = 0.3997 | 0.7696 ± 0.02 | 0.7169 ± 0.019 | 0.6674 ± 0.017 | 0.6228 ± 0.016
101 kPa, x1 = 0.5014 | 0.7849 ± 0.02 | 0.7317 ± 0.019 | 0.6829 ± 0.018 | 0.637 ± 0.017
101 kPa, x1 = 0.6014 | 0.803 ± 0.021 | 0.7509 ± 0.019 | 0.7001 ± 0.018 | 0.6546 ± 0.017
101 kPa, x1 = 0.7043 | 0.8378 ± 0.022 | 0.7843 ± 0.02 | 0.7318 ± 0.019 | 0.6823 ± 0.018
101 kPa, x1 = 0.8 | 0.8834 ± 0.023 | 0.8216 ± 0.021 | 0.7693 ± 0.02 | 0.7163 ± 0.019
101 kPa, x1 = 0.8992 | 0.9338 ± 0.024 | 0.87 ± 0.023 | 0.8092 ± 0.021 | 0.7511 ± 0.019
101.3 kPa, x1 = 0.0224 | – | 0.799 ± 0.013 | – | –
101.3 kPa, x1 = 0.0385 | – | 0.783 ± 0.013 | – | –
101.3 kPa, x1 = 0.0614 | – | 0.773 ± 0.013 | – | –
101.3 kPa, x1 = 0.4829 | – | 0.708 ± 0.012 | – | –
101.3 kPa, x1 = 0.5172 | – | 0.714 ± 0.012 | – | –
101.3 kPa, x1 = 0.5409 | – | 0.72 ± 0.012 | – | –
101.3 kPa, x1 = 0.5731 | – | 0.729 ± 0.012 | – | –
101.3 kPa, x1 = 0.7744 | – | 0.792 ± 0.013 | – | –
101.3 kPa, x1 = 0.8952 | – | 0.846 ± 0.014 | – | –
101.3 kPa, x1 = 0.9478 | – | 0.884 ± 0.014 | – | –

CC1COC(=O)O1 (stereo not drawn) + C1CCOC1
viscosity [mPa·s]
Conditions | 298.15 K | 308.15 K | 318.15 K
101 kPa, x2 = 0.2 | 1.7 ± 0.02 | – | –
101 kPa, x2 = 0.6 | 0.862 ± 0.008 | – | –
101.33 kPa, x2 = 0.0524 | 2.227 ± 0.017 | 1.858 ± 0.014 | 1.589 ± 0.012
101.33 kPa, x2 = 0.1036 | 2.023 ± 0.015 | 1.709 ± 0.013 | 1.459 ± 0.011
101.33 kPa, x2 = 0.1429 | 1.87 ± 0.014 | 1.598 ± 0.012 | 1.373 ± 0.01
101.33 kPa, x2 = 0.2064 | 1.674 ± 0.012 | 1.432 ± 0.01 | 1.239 ± 0.0092
101.33 kPa, x2 = 0.2431 | 1.567 ± 0.011 | 1.351 ± 0.0099 | 1.167 ± 0.0086
101.33 kPa, x2 = 0.3083 | 1.393 ± 0.01 | 1.208 ± 0.0088 | 1.057 ± 0.0078
101.33 kPa, x2 = 0.3478 | 1.303 ± 0.0093 | 1.133 ± 0.0082 | 0.992 ± 0.0073
101.33 kPa, x2 = 0.4095 | 1.171 ± 0.0083 | 1.025 ± 0.0074 | –
101.33 kPa, x2 = 0.5098 | – | 0.8753 ± 0.0063 | 0.7782 ± 0.0057
101.33 kPa, x2 = 0.5621 | – | 0.8044 ± 0.0058 | 0.7222 ± 0.0053
101.33 kPa, x2 = 0.6094 | 0.8417 ± 0.006 | 0.7503 ± 0.0054 | 0.6719 ± 0.0049
101.33 kPa, x2 = 0.6479 | 0.7836 ± 0.0056 | 0.7016 ± 0.0051 | 0.6343 ± 0.0047
101.33 kPa, x2 = 0.7082 | 0.7171 ± 0.0051 | 0.6445 ± 0.0047 | 0.5827 ± 0.0043
101.33 kPa, x2 = 0.7635 | 0.6549 ± 0.0047 | 0.596 ± 0.0044 | –
101.33 kPa, x2 = 0.8062 | 0.6195 ± 0.0045 | – | 0.5098 ± 0.0038
101.33 kPa, x2 = 0.8388 | 0.5831 ± 0.0042 | 0.5361 ± 0.004 | 0.4805 ± 0.0037
101.33 kPa, x2 = 0.9035 | 0.5357 ± 0.0039 | 0.4872 ± 0.0037 | 0.4425 ± 0.0034
101.33 kPa, x2 = 0.9631 | 0.485 ± 0.0036 | 0.4449 ± 0.0034 | 0.404 ± 0.0032

CCCc1ccccc1 + C1CCOC1
303.15 K, 101.33 kPa
Conditions | viscosity [mPa·s]
x2 = 0.1005 | 0.732 ± 0.006
x2 = 0.199 | 0.709 ± 0.006
x2 = 0.3031 | 0.682 ± 0.006
x2 = 0.4019 | 0.656 ± 0.006
x2 = 0.4983 | 0.63 ± 0.006
x2 = 0.6024 | 0.596 ± 0.005
x2 = 0.7022 | 0.561 ± 0.005
x2 = 0.8014 | 0.525 ± 0.005
x2 = 0.8964 | 0.485 ± 0.005

C1CCOC1 + C1COCCO1
Conditions | viscosity [mPa·s]
298.15 K, 101 kPa, x2 = 0.5 | 0.6797 ± 0.018

CC1COC(=O)O1 (stereo not drawn) + C1COCCO1
303.15 K, 101.3 kPa
Conditions | viscosity [mPa·s]
x1 = 0.1007 | 1.1 ± 0.018
x1 = 0.2012 | 1.184 ± 0.02
x1 = 0.3015 | 1.273 ± 0.021
x1 = 0.4017 | 1.369 ± 0.023
x1 = 0.5017 | 1.472 ± 0.024
x1 = 0.6015 | 1.582 ± 0.026
x1 = 0.7018 | 1.706 ± 0.028
x1 = 0.8014 | 1.844 ± 0.03
x1 = 0.9008 | 1.992 ± 0.032

CCCc1ccccc1 + C1COCCO1
303.15 K, 101.3 kPa
Conditions | viscosity [mPa·s]
x2 = 0.1061 | 0.7763 ± 0.005
x2 = 0.1984 | 0.8007 ± 0.0052
x2 = 0.2968 | 0.8298 ± 0.0053
x2 = 0.399 | 0.8589 ± 0.0055
x2 = 0.4945 | 0.8922 ± 0.0057
x2 = 0.5985 | 0.9278 ± 0.0059
x2 = 0.7003 | 0.9648 ± 0.0061
x2 = 0.8026 | 1.005 ± 0.0063
x2 = 0.9025 | 1.045 ± 0.0065
